From US10752584B2 (EMORY UNIVERSITY, priority 2016, dated 2020)

How the values were obtained:
Type in all cases: cell-based
[1] = Cellular toxicity assay in CEM cells; settings: human, CEM lymphoblastoid cells, read-out: Cytotoxicity
Outline: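 Toxicity in cells was measured across a concentration range. Negative controls were untreated cells given solvent, while cycloheximide served as the cytotoxic reference. Values are IC50s by median-effect analysis.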

[2] = test system: nuclear DNA in HepG2 cells; assay: Mitochondrial toxicity assay in HepG2 cells: nuclear DNA; settings: Homo sapiens
Excerpt: A real-time PCR assay to accurately quantify mitochondrial DNA content has been developed (see Stuyver L J, Lostia S, Adams M, Mathew J S, Pai B S, Grier J, Tharnish P M, Choi Y, Chong Y, Choo H, Chu C K, Otto M J, Schinazi R F. Antiviral activities and cellular toxicities of modified 2′,3′-dideoxy-2′,3′-didehydrocytidine analogs. Antimicrob. Agents Chemother. 2002; 46: 3854-60). This assay was used in all studies described in this application that determine the effect of compounds on mitochondrial DNA content. In this assay, low-passage-number HepG2 cells were seeded at 5,000 cells/well in collagen-coated 96-well plates. Test compounds were added to the medium to obtain final concentrations of 0 μM, 0.1 μM, 10 μM and 100 μM. On culture day 7, cellular nucleic acids were prepared by using commercially available columns (RNeasy 96 kit; Qiagen). […] The mitochondrial cytochrome c oxidase subunit II (COXII) gene and the β-actin or rRNA gene were amplified from 5 μl of the eluted nucleic acids using a multiplex Q-PCR protocol with suitable primers and probes for both target and reference amplifications. For COXII the following sense, probe and antisense primers were used, respectively: 5′-TGCCCGCCATCATCCTA-3′, 5′-tetrachloro-6-carboxyfluorescein-[…]-TAMRA-3′ and 5′-[…]-3′. For exon 3 of the β-actin gene (GenBank accession number E01094) the sense, probe, and antisense primers are 5′-GCGCGGCTACAGCTTCA-3′, 5′-6-[…]-3′ and 5′-[…]-3′, respectively. The primers and probes for the rRNA gene are commercially available from Applied Biosystems. Since equal amplification efficiencies are obtained for all genes, the comparative CT method was used to investigate potential inhibition of mitochondrial DNA synthesis. The comparative CT method uses arithmetic formulas in which the amount of target (COXII gene) is normalized to the amount of an endogenous reference (the β-actin or rRNA gene) and is relative to a calibrator (a control with no drug at day 7). The arithmetic formula for this approach is given by 2−ΔΔCT, where ΔΔCT is (CT for average target test sample CT for target control)−(CT for average reference test−CT for reference control) (see Johnson M R, K Wang, J B Smith, M J Heslin, R B Diasio. Quantitation of dihydropyrimidine dehydrogenase expression by real-time reverse transcription polymerase chain reaction. Anal. Biochem. 2000; 278:175-184). A decrease in mitochondrial DNA content in cells grown in the presence of drug indicated mitochondrial toxicity.
The effect of compounds 7 and 9 on the levels of mitochondrial and nuclear DNA, and lactic acid production was evaluated in HepG2 cells (14-day assay), and the data is tabulated below in Table 2: […]

HBV e antigen (HBeAg) = assay: HBeAg ELISA in HepAD38 cells (cccDNA-dependent marker); settings: Hepatitis B virus, HePAD38, 336 h
Method: Production of secreted HBeAg is predominantly cccDNA-dependent in HepAD38 cells and therefore can serve as a surrogate marker for cccDNA (Ladner, S. K., Otto, M. J., Barker, C. S., Zaifert, K., Wang, G. H., Guo, J. T., Seeger, C., King, R. W. Antimicrob Agents Chemother 1997, 41, 1715-1720; Zhou T, Guo H, Guo J T, Cuconati A, Mehta A, Block T M. Antiviral Res. 2006; 72 (2): 116-24.). The effect on the levels of cccDNA formation was assessed using a cell-based assay that measures HBV e antigen (HBeAg) as a cccDNA-dependent marker in the HepAD38 system. HepAD38 cells were seeded at 50,000 cells/well in collagen-coated 96-well plates with DMEM/F12 medium (Life Technologies) supplemented with 10% heat-inactivated fetal bovine serum. Cells were treated with 0.3 μg/ml tetracycline as needed. Test compounds and controls were added to cells to a final concentration of 10 μM or in a dose response manner ranging from 0.001 to 10 μM. Medium and test compounds were replenished every 5 days in culture. Supernatants were harvested at day-14, clarified by centrifugation at 5000 rpm for 5 min, and stored at −70° C. until use. ELISA—Culture medium was diluted 1:15 in DMEM/F12 and the levels of HBeAg secreted in the culture medium were measured by using HBeAg ELISA kit (BioChain Institute Inc. Hayward, Calif.) according to the manufacturer's protocol. The concentration of compound that reduced levels of secreted HBeAg by 50% (EC50) was determined by linear regression.

**Q.** For `C#CCNC(=O)C(=O)c1c(C)c(C(=O)Nc2ccc(F)c(F)c2)n(C)c1C` [Compound 7a, 4-[(Propargylamino)(oxo)acetyl]-N-(3,4-difluorophenyl)-1,3,5-trimethyl-1H-pyrrole-2-carboxamide], which CC50 [1] is on record?
**A.** The CC50 was greater than 100000 nM.

**Q.** And the IC50 ([2]; 336 h, HepG2 cells, 14-day assay)?
**A.** The IC50 was greater than 50000 nM.

**Q.** And the inhibition at 10 µM ([2]; 336 h, HepG2 cells, 14-day assay, 10 μM, read-out: % inhibition nDNA)?
**A.** Its inhibition at 10 µM is 5.4%.

**Q.** And the inhibition at 25 µM ([2]; 336 h, HepG2 cells, 14-day assay, 25 μM, read-out: % inhibition nDNA)?
**A.** Its inhibition at 25 µM is less than 1%.

**Q.** And the inhibition at 50 µM ([2]; HepG2, 336 h, read-out: % inhibition nDNA)?
**A.** Its inhibition at 50 µM is 13.1%.

**Q.** What about the EC50 (HBV e antigen (HBeAg); read-out: Anti-HBeAg activity EC50) of the same molecule?
**A.** The EC50 was 8 nM.

**Q.** What about the EC90 (HBV e antigen (HBeAg); read-out: Anti-HBeAg activity EC90) of the same molecule?
**A.** The EC90 was 580 nM.
